Laboratory results reported in patent US9980945B2, “Benzoisoxazole-substituted compounds as MGLUR4 allosteric potentiators, compositions, and methods of treating neurological dysfunction” (Vanderbilt University, priority 2015, dated 2018).

Molecular target: mGluR4 (UniProt Q14833)
Test: mGluR4 potentiation assay (EC50 for potentiation at EC20 agonist; fluorometric plate reader, Ca2+ or thallium dye)
Format: cell-based
Details: potentiation of mGluR4; species of receptor not given
Method: The disclosed compounds and compositions can be evaluated for their ability to act as a potentiator of metabotropic glutamate receptor activity, in particular mGluR4 activity, by any suitable known methodology known in the art. For example, Chinese Hamster Ovary (CHO) cells transacted with human mGluR4 or HEK cells co-transfected with rat mGluR4 and the G-protein regulated Inwardly Rectifying Potassium channel (GIRK) were plated in clear bottom assay plates for assay in a Hamamatsu FDSS Fluorometric Plate Reader. The cells were loaded with either a Ca2+-sensitive fluorescent dye or the thallium responsive dye and the plates were washed and placed into a suitable kinetic plate reader. For human mGluR4 assays, a fluorescence baseline was established for 3-5 seconds, the disclosed compounds were then added to the cells, and the response in cells was measured. Approximately two and a half minutes later, a concentration of mGluR4 orthosteric agonist (e.g. glutamate or L-AP4) eliciting approximately 20% (EC20) of the maximal agonist response was added to the cells, and the response was measured. Two minutes later, a concentration of mGluR4 agonist (e.g. glutamate or L-AP4) eliciting 80% (EC80) of the maximal agonist response was added to the cells, and the response was measured. For rat mGluR4/GIRK experiments, a baseline was established for approximately five seconds, disclosed compounds were added, and either an EC20 or EC80 concentration of agonist was added approximately two and one half minutes later. Potentiation of the agonist response of mGluR4 by the disclosed compounds was observed as an increase in response to the EC20 concentration of agonist in the presence of compound compared to the response to agonist in the absence of compound. Similarly, antagonism of the agonist response of mGluR4 by the disclosed compounds was observed as a decrease in response to the EC80 concentration of agonist in the presence of compound compared to the response to agonist in the absence of compound.
The above described assay operated in two modes. In the first mode, a range of concentrations of the disclosed compounds are added to cells, followed by a single fixed concentration of agonist. If the compound acts as a potentiator, an EC50 so value for potentiation and a maximum extent of potentiation by the compound at this concentration of agonist is determined by non-linear curve fitting. If the compound acts as a noncompetitive antagonist, an IC50 value is determined by non-linear curve fitting. In the second mode, several fixed concentrations of the disclosed compounds are added to various wells on a plate, followed by a range in concentrations of agonist for each concentration of disclosed compound. The EC50 values for the agonist at each concentration of compound are determined by non-linear curve fitting. A decrease in the EC50 value of the agonist with increasing concentrations of the sample compound (a leftward shift of the agonist concentration-response curve) is an indication of the degree of mGluR4 potentiation at a given concentration of the sample compound. A decrease in the maximal response of the agonist with increasing concentrations of the sample compounds, with or without a rightward shift in agonist potency, is an indication of the degree of noncompetitive antagonism at mGluR4. The second mode also indicates whether the sample compounds also affect the maximum response to mGluR4 to agonists.

SMILES	EC50 [nM]
Cc1noc2cc(Nc3n[nH]c4cccnc34)ccc12 [Example 1, 3-methyl-N-(1H-pyrazolo[4,3-b]pyridin-3-yl)benzo[d]isoxazol-6-amine]	1860
c1cnc2c(Nc3ccc4c(C5CCCC5)noc4c3)n[nH]c2c1 [Example 2, 3-cyclopentyl-N-(1H-pyrazolo[4,3-b]pyridin-3-yl)benzo[d]isoxazol-6-amine]	523
c1cnc2c(Nc3ccc4c(C5CCC5)noc4c3)n[nH]c2c1 [Example 3, 3-cyclobutyl-N-(1H-pyrazolo[4,3-b]pyridin-3-yl)benzo[d]isoxazol-6-amine]	897
c1cnc2c(Nc3ccc4c(C5CCC5)noc4c3)n[nH]c2n1 [Example 4, 3-cyclobutyl-N-(1H-pyrazolo[3,4-b]pyrazin-3-yl)benzo[d]isoxazol-6-amine]	683
c1cnc2[nH]nc(Nc3ccc4c(C5CCCC5)noc4c3)c2c1 [Example 5, 3-cyclopentyl-N-(1H-pyrazolo[3,4-b]pyridin-3-yl)benzo[d]isoxazol-6-amine]	2400
ClC1(c2noc3cc(Nc4n[nH]c5cccnc45)ccc23)CCC1 [Example 6, 3-(1-chlorocyclobutyl)-N-(1H-pyrazolo[4,3-b]pyridin-3-yl)benzo[d]isoxazol-6-amine]	> 10000
c1cnc2c(Nc3ccc4c(C5CCCC5)noc4c3)n[nH]c2n1 [Example 7, 3-cydopentyl-N-(1H-pyrazolo[3,4-b]pyrazin-3-yl)benzo[d]isoxazol-6-amine]	527
ClC1(c2noc3cc(Nc4n[nH]c5nccnc45)ccc23)CCC1 [Example 8, 3-(1-chlorocyclobutyl)-N-(1H-pyrazolo[3,4-b]pyrazin-3-yl)benzo[d]isoxazol-6-amine]	185
CC(C)Cc1noc2cc(Nc3n[nH]c4ncccc34)ccc12 [Example 9, 3-isobutyl-N-(1H-pyrazolo[3,4-b]pyridin-3-yl)benzo[d]isoxazol-6-amine]	4800
CC(C)Cc1noc2cc(Nc3n[nH]c4ccccc34)ccc12 [Example 10, N-(1H-indazol-3-yl)-3-isobutylbenzo[d]isoxazol-6-amine]	> 10000
CC(C)(C)Cc1noc2cc(Nc3n[nH]c4cccnc34)ccc12 [Example 11, 3-neopentyl-N-(1H-pyrazolo[4,3-b]pyridin-3-yl)benzo[d]isoxazol-6-amine]	521
CC(C)Cc1noc2cc(Nc3n[nH]c4cccnc34)ccc12 [Example 12, 3-isobutyl-N-(1H-pyrazolo[4,3-b]pyridin-3-yl)benzo[d]isoxazol-6-amine]	826
CC(C)Cc1noc2cc(Nc3n[nH]c4nccnc34)ccc12 [Example 13, 3-isobutyl-N-(1H-pyrazolo[3,4-b]pyrazin-3-yl)benzo[d]isoxazol-6-amine]	849
CC(C)(C)Cc1noc2cc(Nc3n[nH]c4nccnc34)ccc12 [Example 14, 3-neopentyl-N-(1H-pyrazolo[3,4-b]pyrazin-3-yl)benzo[d]isoxazol-6-amine]	617
CCc1noc2cc(Nc3n[nH]c4ncccc34)ccc12 [Example 15, 3-ethyl-N-(1H-pyrazolo[3,4-b]pyridin-3-yl)benzo[d]isoxazol-6-amine]	2100
CCc1noc2cc(Nc3n[nH]c4cccnc34)ccc12 [Example 16, 3-ethyl-N-(1H-pyrazolo[4,3-b]pyridin-3-yl)benzo[d]isoxazol-6-amine]	1300
CC(C)(C)Cc1noc2cc(Nc3n[nH]c4ccccc34)ccc12 [Example 17, N-(1H-indazol-3-yl)-3-neopentylbenzo[d]isoxazol-6-amine]	> 10000

SMILES	EC50 [nM]
CCc1noc2cc(Nc3n[nH]c4ccccc34)ccc12 [Example 18, 3-ethyl-N-(1H-imdazol-3-yl)benzo[d]isoxazol-6-amine]	1940
CCc1noc2cc(Nc3n[nH]c4nccnc34)ccc12 [Example 19, 3-ethyl-N-(1H-pyrazolo[3,4-b]pyrazin-3-yl)benzo[d]isoxazol-6-amine]	1310
CC(C)(C)Cc1noc2cc(Nc3n[nH]c4ncccc34)ccc12 [Example 20, 3-neopentyl-N-(1H-pyrazolo[3,4-b]pyridin-3-yl)benzo[d]isoxazol-6-amine]	3100
c1cc2oncc2cc1Nc1n[nH]c2c1CCCC2 [Example 21, N-(4,5,6,7-tetrahydro-1H-indazol-3-yl)benzo[d]isoxazol-5-amine]	> 10000
Cc1noc2ccc(Nc3n[nH]c4cccnc34)cc12 [Example 22, 3-methyl-N-(1H-pyrazolo[4,3-b]pyridin-3-yl)benzo[d]isoxazol-5-amine]	76
Cc1noc2ccc(Nc3n[nH]c4nccnc34)cc12 [Example 23, 3-methyl-N-(1H-pyrazolo[3,4-b]pyrazin-3-yl)benzo[d]isoxazol-5-amine]	124
Cc1noc2ccc(Nc3n[nH]c4ncccc34)cc12 [Example 24, 3-methyl-N-(1H-pyrazolo[3,4-b]pyridin-3-yl)benzo[d]isoxazol-5-amine]	297
CCc1noc2ccc(Nc3n[nH]c4cccnc34)cc12 [Example 25, 3-ethyl-N-(1H-pyrazolo[4,3-b]pyridin-3-yl)benzo[d]isoxazol-5-amine]	> 10000
c1cnc2c(Nc3ccc4c(OC5CCOCC5)noc4c3)n[nH]c2c1 [Example 26, N-(1H-pyrazolo[4,3-b]pyridin-3-yl)-3-((tetrahydro-2H-pyran-4-yl)oxy)benzo[d]isoxazole-6-amine]	1200
c1cnc2c(Nc3ccc4c(OCC5CCCCO5)noc4c3)n[nH]c2c1 (stereo not drawn) [Example 27, N-(1H-pyrazolo[4,3-b]pyridin-3-yl)-3-((tetrahydro-2H-pyran-2-yl)methoxy)benzo[d]isoxazole-6-amine]	1280
CC1CN(c2noc3cc(Nc4n[nH]c5cccnc45)ccc23)CC(C)O1 (stereo not drawn) [Example 28, 3-(2,6-dimethylmorpholino)-N-(1H-pyrazolo[4,3-b]pyridin-3-yl)benzo[d]isoxazol-6-amine]	1860
O=C(NC1CC(F)(F)C1)c1noc2cc(Nc3n[nH]c4cccnc34)ccc12 [Example 29, 6-((1H-pyrazolo[4,3-b]pyridin-3-yl)amino)-N-(3,3-difluorocyclobutyl)benzo[d]isoxazole-3-carboxamide]	249
O=C(c1noc2cc(Nc3n[nH]c4cccnc34)ccc12)N1CCC(F)(F)C1 [Example 30, (6-((1H-pyrazolo[4,3-b]pyridin-3-yl)amino)benzo[d]isoxazol-3-yl)(3,3-difluoropyrrolidin-1-yl)methanone]	> 10000
CC(c1ccc2c(cnn2C)c1)c1noc2cc(Nc3n[nH]c4cccnc34)ccc12 (stereo not drawn) [Example 31, 3-(1-(1-methyl-1H-indazol-5-yl)ethyl)-N-(1H-pyrazolo[4,3-b]pyridin-3-yl)benzo[d]isoxazol-6-amine]	645
COc1ccc(Cc2noc3cc(Nc4n[nH]c5cccnc45)ccc23)cn1 [Example 32, 3-((6-methoxypyridin-3-yl)methyl)-N-(1H-pyrazolo[4,3-b]pyridin-3-yl)benzo[d]isoxazol-6-amine]	96
c1cnc2c(Nc3ccc4c(Cc5ccc6[nH]ncc6c5)noc4c3)n[nH]c2c1 [Example 33, 3-((1H-indazol-5-yl)methyl)-N-(1H-pyrazolo[4,3-b]pyridin-3-yl)benzo[d]isoxazol-6-amine]	44
